Assay results reported in the NIST ThermoML archive (doi:10.1016/j.fluid.2017.10.025).
± gives the expanded uncertainty stated by the source.

What was measured:
[1] = 293.15 K; 101.33 kPa; Liquid; buoyancy
[2] = refractive index (Na D-line) (dimensionless); conditions: 298.15 K; 101.33 kPa; Liquid; 2AWJ refractometer

Structure (SMILES)	mass density [1]	refractive index [2]
O [water]	998.3 ± 0.6 kg/m3	1.3327 ± 0.0002
C=CCO [2-propenol]	855 ± 0.7 kg/m3	1.4129 ± 0.0003
